Results on 16 compounds are retold here after ChEMBL document CHEMBL1135272 (Bioorg Med Chem Lett, 2002).

For experiment [1], the system named is A549. Put plainly: Inhibition of NFkB (transcription factor) activation in A549 human lung carcinoma cell line at 20 uM. Format: functional.
The test system of experiment [2] is A549. Put plainly: Compound was tested for its ability to inhibit tumor necrosis factor alpha (TNF alpha) induced apoptosis in A549 human lung carcinoma cell line. Format: functional, cell-based.
In experiment [3] the test system is A549. Description: Inhibition of NFkB (transcription factor) activation in A549 human lung carcinoma cell line. Format: functional, cell-based.
The test system of experiment [4] is A549. Put plainly: Compound was tested for its ability to inhibit tumor necrosis factor alpha (TNF alpha) induced apoptosis in A549 human lung carcinoma cell line; NA=Not assayed. Format: functional, cell-based.
Experiment [5] has as its system A549. Description: (§1) Compound was tested for its ability to inhibit tumor necrosis factor alpha (TNF alpha) induced apoptosis in A549 human lung carcinoma cell line at 20 uM concentration. Format: functional, cell-based.
For experiment [6], the system named is A549. Put plainly: The compound was examined for its ability to block tumor necrosis factor alpha (TNF alpha) induced IL-8 production in A549 human lung carcinoma cell line using an ELISA. Format: functional, cell-based. In general terms: ELISA stands for enzyme-linked immunosorbent assay.
Experiment [7] relates to A549. Description: The compound was tested for its ability to inhibit tumor necrosis factor alpha (TNF alpha) induced apoptosis in A549 human lung carcinoma cell line. Format: functional, cell-based.
For experiment [8], the system named is A549. Described as §1. Format: functional.

Compound `CCCOC(=O)C1C2C(=O)CC(c3ccc(OCC)cc32)C1C(=O)OCC[Si](C)(C)C` (centres undefined) came in with an inhibition at 20 µM in experiment [1] of 43%. In experiment [2], half-maximal inhibition (IC50) was put at 10 µM.
`CCCOC(=O)C1C2C(=O)CC(c3ccc(O)cc32)C1C(=O)OCCC[Si](C)(C)C` (centres undefined): the half-maximal inhibitory concentration (IC50) in experiment [3] was 40 µM; in experiment [4] it was “Not Active”.
`CCCOC(=O)C1C2C(=O)CC(c3ccc(O)cc32)C1C(=O)OCC[Si](C)(C)C` (centres undefined): the figures for the IC50 in experiment [3], in experiment [5] and in experiment [6] were 15 µM, 3 µM and 14 µM, respectively.
For `C=CCOC(=O)C1C2C(=O)CC(c3ccc(O)cc32)C1C(=O)OCC[Si](C)(C)C` (centres undefined), the IC50 is 21 µM in experiment [3], 5 µM in experiment [7] and 21 µM in experiment [6].
With `C[Si](C)(C)CCOC(=O)C1C2CC(=O)C(c3cc(O)ccc32)C1C(=O)OCCN1CCOCC1` (centres undefined), the inhibition at 20 µM turned out to be 18% in experiment [1] and 43% in experiment [8].
As to `C=CCNC(=O)C1C2C(=O)CC(c3ccc(O)cc32)C1C(=O)OCC[Si](C)(C)C` (centres undefined), the inhibition at 20 µM in experiment [1] worked out at 19%; in experiment [8], 18%.
On the same counts, the results for `CCCOC(=O)C1C2C(=O)CC(c3ccc(OCc4ccccn4)cc32)C1C(=O)OCC[Si](C)(C)C` (centres undefined) are 31% and 47%.
Regarding `C=CCOC(=O)NC1C2C(=O)CC(c3ccc(O)cc32)C1C(=O)OCC[Si](C)(C)C` (centres undefined), at 20 µM the inhibition in experiment [1] was 34%. The compound further gave an IC50 in experiment [2] of 14 µM.
In experiment [3], `CCCOC(=O)C1C2C(=O)CC(c3ccccc32)C1C(=O)OCC[Si](C)(C)C` (centres undefined) had an IC50 of 45 µM. This compound also registered an inhibition at 20 µM in experiment [8] of 38%.
In the case of `C=CCNC(=O)NC1C2C(=O)CC(c3ccc(O)cc32)C1C(=O)OCC[Si](C)(C)C` (centres undefined), the figures for the inhibition at 20 µM in experiment [1] and in experiment [8] were 28% and 23%, respectively.
For `CCCOC(=O)C1C2C(=O)CC(c3ccc(OCC(=O)O)cc32)C1C(=O)OCC[Si](C)(C)C` (centres undefined), the inhibition at 20 µM in experiment [1] is 3%; in experiment [8], 13%.
Take `CCCOC(=O)C1C2C(=O)CC(c3ccc(O)cc32)C1C(=O)OCCC(C)(C)C` (centres undefined): the IC50 in experiment [3] was 41 µM; in experiment [4], “Not Active”.
`CCCOC(=O)C1C2C(=O)CC(c3ccc(OCCc4ccccn4)cc32)C1C(=O)OCC[Si](C)(C)C` (centres undefined): the IC50 in experiment [3] came out at 27 µM; in experiment [2], 4 µM.
For `C[Si](C)(C)CCOC(=O)C1C2CC(=O)C(c3cc(O)ccc32)C1NC(=O)OCc1ccc(-c2ccccc2)cc1` (centres undefined), the results for the inhibition at 20 µM in experiment [1] and in experiment [8] were 27% and 0%, respectively.
In the case of `C[Si](C)(C)CCOC(=O)C1C2CC(=O)C(c3cc(O)ccc32)C1NC(=O)NCc1cccnc1` (centres undefined), the values for the inhibition at 20 µM in experiment [1] and in experiment [8] were 30% and 11%, respectively.
With `C[Si](C)(C)CCOC(=O)C1C2CC(=O)C(c3cc(O)ccc32)C1C(=O)OCc1cccc(F)c1` (centres undefined), in experiment [7], the IC50 came to 12 µM. Besides, in experiment [1], testing at 20 µM gave an inhibition of 13%.

By inhibition is commonly meant the relative decrease from the control value, in per cent. Usually IC50 stands for the concentration at which inhibition is half-maximal. A low value points to greater potency.
